Laboratory results reported in the supplement of paper PMC10307832.

Experiments:
Assay in all cases: relative viability (nuclei count vs DMSO), 5 days (fraction); higher = more cells survive
HARA = tested on: HARA
Summary of the method: (§1)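 Lung cancer cell lines in 1536-well plates were dosed by pin tool the day after seeding, either with one drug alone or with a fixed anchor-drug dose plus five library-drug doses (not always all listed) in √10 steps. After 5 days, cells were fixed and their nuclei stained in one step (final 0.05% Triton X-100, 1% formaldehyde, 1 ug/ml Hoechst), then counted on 4× images. Relative viability is the nuclei count in treated wells divided by that in vehicle wells. Values are medians of duplicate plates.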

NCI-H838 = tested on: NCI-H838
Summary of the method: as §1

EKVX = tested on: EKVX
Summary of the method: as §1

NCI-H2170 = tested on: NCI-H2170
Summary of the method: as §1

CAL-12T = tested on: CAL-12T
Summary of the method: as §1

NCI-H2009 = tested on: NCI-H2009
Summary of the method: as §1

NCI-H661 = tested on: NCI-H661
Summary of the method: as §1

NCI-H1437 = tested on: NCI-H1437
Summary of the method: as §1

ABC-1 = tested on: ABC-1
Summary of the method: as §1

BEN = tested on: BEN
Summary of the method: as §1

NCI-H2023 = tested on: NCI-H2023
Summary of the method: as §1

PC-14 = tested on: PC-14
Summary of the method: as §1

COR-L23 = tested on: COR-L23
Summary of the method: as §1

NCI-H3122 = tested on: NCI-H3122
Summary of the method: as §1

201T = tested on: 201T
Summary of the method: as §1

COR-L 105 = tested on: COR-L 105
Summary of the method: as §1

NCI-H1650 = tested on: NCI-H1650
Summary of the method: as §1

NCI-H1666 = tested on: NCI-H1666
Summary of the method: as §1

LU99A = tested on: LU99A
Summary of the method: as §1

LK-2 = tested on: LK-2
Summary of the method: as §1

NCI-H727 = tested on: NCI-H727
Summary of the method: as §1

HCC-366 = tested on: HCC-366
Summary of the method: as §1

In the case of `Clc1ccc(Nc2nnc(Cc3ccncc3)c3ccccc23)cc1` [Vatalanib] + CS(=O)(=O)CCNCc1ccc(-c2ccc3ncnc(Nc4ccc(OCc5cccc(F)c5)c(Cl)c4)c3c2)o1 [Lapatinib] (partner 2 µM), the relative viability (HARA; first compound 0.04 µM) is reported as 0.583, the relative viability (HARA; first compound 0.1265 µM) is reported as 0.694 and the relative viability (HARA; first compound 0.4 µM) is reported as 0.746. For the same compound, the relative viability (HARA; first compound 1.265 µM) was 0.731, the relative viability (HARA; first compound 4 µM) was 0.948 and the relative viability (NCI-H838; first compound 0.04 µM) was 1.06. It also gave a relative viability (NCI-H838; first compound 0.1265 µM) of 0.944, a relative viability (NCI-H838; first compound 0.4 µM) of 1.09 and a relative viability (NCI-H838; first compound 1.265 µM) of 0.841. For the same compound, the relative viability (NCI-H838; first compound 4 µM) was 0.961, the relative viability (EKVX; first compound 0.04 µM) was 0.195 and the relative viability (EKVX; first compound 0.1265 µM) was 0.238. For the same compound, the relative viability (EKVX; first compound 0.4 µM) was 0.547, the relative viability (EKVX; first compound 1.265 µM) was 0.186 and the relative viability (EKVX; first compound 4 µM) was 0.216. The relative viability (NCI-H2170; first compound 0.04 µM) was 0.261, the relative viability (NCI-H2170; first compound 0.1265 µM) was 0.268 and the relative viability (NCI-H2170; first compound 0.4 µM) was 0.286. The relative viability (NCI-H2170; first compound 1.265 µM) was 0.261, the relative viability (NCI-H2170; first compound 4 µM) was 0.264 and the relative viability (CAL-12T; first compound 0.04 µM) was 0.63. The relative viability (CAL-12T; first compound 0.1265 µM) was 0.668, the relative viability (CAL-12T; first compound 1.265 µM) was 0.678 and the relative viability (CAL-12T; first compound 4 µM) was 0.633. The relative viability (NCI-H2009; first compound 0.04 µM) was 1.03, the relative viability (NCI-H2009; first compound 0.1265 µM) was 0.868 and the relative viability (NCI-H2009; first compound 0.4 µM) was 1.1. It also gave a relative viability (NCI-H2009; first compound 1.265 µM) of 0.894, a relative viability (NCI-H2009; first compound 4 µM) of 0.919 and a relative viability (NCI-H661; first compound 0.04 µM) of 0.505. It also gave a relative viability (NCI-H661; first compound 0.1265 µM) of 0.384, a relative viability (NCI-H661; first compound 0.4 µM) of 0.518 and a relative viability (NCI-H661; first compound 1.265 µM) of 0.524. For the same compound, the relative viability (NCI-H661; first compound 4 µM) was 0.496, the relative viability (NCI-H1437; first compound 0.04 µM) was 0.856 and the relative viability (NCI-H1437; first compound 0.1265 µM) was 0.779. It also gave a relative viability (NCI-H1437; first compound 0.4 µM) of 0.934, a relative viability (NCI-H1437; first compound 1.265 µM) of 0.734 and a relative viability (NCI-H1437; first compound 4 µM) of 0.848. For the same compound, the relative viability (ABC-1; first compound 0.04 µM) was 1.33, the relative viability (ABC-1; first compound 0.1265 µM) was 0.931 and the relative viability (ABC-1; first compound 0.4 µM) was 1.16. It also gave a relative viability (ABC-1; first compound 1.265 µM) of 1.23, a relative viability (ABC-1; first compound 4 µM) of 1.05 and a relative viability (BEN; first compound 0.04 µM) of 0.79. It also gave a relative viability (BEN; first compound 0.1265 µM) of 0.554, a relative viability (BEN; first compound 0.4 µM) of 0.806 and a relative viability (BEN; first compound 1.265 µM) of 0.657. The relative viability (BEN; first compound 4 µM) was 0.767, the relative viability (NCI-H2023; first compound 0.04 µM) was 0.749 and the relative viability (NCI-H2023; first compound 0.1265 µM) was 0.725. The relative viability (NCI-H2023; first compound 0.4 µM) was 1.05, the relative viability (NCI-H2023; first compound 1.265 µM) was 0.681 and the relative viability (NCI-H2023; first compound 4 µM) was 0.736. It also gave a relative viability (PC-14; first compound 0.04 µM) of 0.377, a relative viability (PC-14; first compound 0.1265 µM) of 0.306 and a relative viability (PC-14; first compound 0.4 µM) of 0.334. For the same compound, the relative viability (PC-14; first compound 1.265 µM) was 0.315, the relative viability (PC-14; first compound 4 µM) was 0.288 and the relative viability (COR-L23; first compound 0.04 µM) was 0.848. It also gave a relative viability (COR-L23; first compound 0.1265 µM) of 0.753, a relative viability (COR-L23; first compound 0.4 µM) of 1.01 and a relative viability (COR-L23; first compound 1.265 µM) of 1.07. For the same compound, the relative viability (COR-L23; first compound 4 µM) was 0.868, the relative viability (NCI-H3122; first compound 0.04 µM) was 1.01 and the relative viability (NCI-H3122; first compound 0.1265 µM) was 1.01. For the same compound, the relative viability (NCI-H3122; first compound 0.4 µM) was 1.01, the relative viability (NCI-H3122; first compound 1.265 µM) was 0.977 and the relative viability (NCI-H3122; first compound 4 µM) was 0.97. For the same compound, the relative viability (201T; first compound 0.04 µM) was 1.02, the relative viability (201T; first compound 0.1265 µM) was 0.989 and the relative viability (201T; first compound 0.4 µM) was 1.04. It also gave a relative viability (201T; first compound 1.265 µM) of 1.05, a relative viability (201T; first compound 4 µM) of 1.07 and a relative viability (COR-L 105; first compound 0.04 µM) of 0.375. The relative viability (COR-L 105; first compound 0.1265 µM) was 0.301, the relative viability (COR-L 105; first compound 0.4 µM) was 0.404 and the relative viability (COR-L 105; first compound 1.265 µM) was 0.358. It also gave a relative viability (COR-L 105; first compound 4 µM) of 0.353, a relative viability (NCI-H1650; first compound 0.04 µM) of 0.799 and a relative viability (NCI-H1650; first compound 0.1265 µM) of 0.644. For the same compound, the relative viability (NCI-H1650; first compound 0.4 µM) was 0.959, the relative viability (NCI-H1650; first compound 1.265 µM) was 0.752 and the relative viability (NCI-H1650; first compound 4 µM) was 0.63. For the same compound, the relative viability (NCI-H1666; first compound 0.04 µM) was 0.728, the relative viability (NCI-H1666; first compound 0.1265 µM) was 0.749 and the relative viability (NCI-H1666; first compound 0.4 µM) was 0.863. The relative viability (NCI-H1666; first compound 1.265 µM) was 0.529, the relative viability (NCI-H1666; first compound 4 µM) was 0.545 and the relative viability (LU99A; first compound 0.04 µM) was 0.893. The relative viability (LU99A; first compound 0.1265 µM) was 0.986, the relative viability (LU99A; first compound 0.4 µM) was 1.16 and the relative viability (LU99A; first compound 1.265 µM) was 0.831. For the same compound, the relative viability (LU99A; first compound 4 µM) was 0.92, the relative viability (LK-2; first compound 0.04 µM) was 0.88 and the relative viability (LK-2; first compound 0.1265 µM) was 0.831. The relative viability (LK-2; first compound 0.4 µM) was 0.698, the relative viability (LK-2; first compound 1.265 µM) was 1.03 and the relative viability (LK-2; first compound 4 µM) was 0.93. It also gave a relative viability (NCI-H727; first compound 0.04 µM) of 0.806, a relative viability (NCI-H727; first compound 0.1265 µM) of 0.717 and a relative viability (NCI-H727; first compound 0.4 µM) of 0.9. The relative viability (NCI-H727; first compound 1.265 µM) was 0.709, the relative viability (NCI-H727; first compound 4 µM) was 1.02 and the relative viability (HCC-366; first compound 0.04 µM) was 1.02. The relative viability (HCC-366; first compound 0.1265 µM) was 0.93, the relative viability (HCC-366; first compound 0.4 µM) was 1.06 and the relative viability (HCC-366; first compound 1.265 µM) was 0.937. For the same compound, the relative viability (HCC-366; first compound 4 µM) was 1.03.
